Columns and labels:
[1] = biological target: T1, human A2A AdoR (Homo sapiens, UniProt P29274); assay: Adenosine receptor binding assay, A2A ([3H]-CGS-21680); settings: membranes of HEK-293 cells expressing human A2A AdoR; read-out: hA2A IC50
T1 construct: purchased PerkinElmer RBHA2AM400UA
Method in brief: (§1)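 Filtration binding on membranes: A2A in HEK-293 with 6 nM [3H]-CGS-21680, Tris pH 7.4, 2 h; A2B in HEK-293 with 8 nM [3H]-DPCPX, HEPES pH 7.0, 1 h; A1 in CHO-K1 with 1 nM [3H]-DPCPX, HEPES pH 7.4, 1 h; room temperature. 8-point dilutions; IC50 converted to Ki (Cheng–Prusoff).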

[2] = biological target: T2, A1AdoR (Homo sapiens, UniProt P30542); assay: Adenosine receptor binding assay, A1 ([3H]-DPCPX); settings: ratio A1 vs A2A binding
T2 construct: purchased PerkinElmer ES-010-M400UA
T2 sequence (P30542 1-326): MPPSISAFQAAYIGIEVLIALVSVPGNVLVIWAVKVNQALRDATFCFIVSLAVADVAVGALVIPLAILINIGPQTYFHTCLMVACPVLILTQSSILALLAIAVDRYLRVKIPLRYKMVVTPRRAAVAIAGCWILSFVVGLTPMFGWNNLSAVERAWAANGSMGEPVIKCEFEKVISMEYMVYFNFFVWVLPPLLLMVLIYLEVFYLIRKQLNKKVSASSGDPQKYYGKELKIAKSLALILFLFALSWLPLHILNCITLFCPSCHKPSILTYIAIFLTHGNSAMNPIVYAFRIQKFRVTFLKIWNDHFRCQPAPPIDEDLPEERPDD
Method in brief: as §1

[3] = system: phospho-CREB (pCREB); assay: Human whole blood phospho-CREB (pCREB) assay / modulation of pCREB in human immune cells; type: cell-based; settings: agonist (NECA or CGS-21680)-stimulated human blood cells
Protocol: Fresh human blood samples are derived from healthy volunteers and processed in heparin tubes. 67.5 ul of whole blood is aliquoted to each well in a 96-well plate and incubated at 37° C. for 30 min. Testing compounds are diluted with DMSO to make 8-point 3-fold serial dilution and 3.5 ul (20×) is added to each well. Cells are incubated with the compounds at 37° C. for 30 min. NECA (5 uM) is then added to each well and cells are incubated for 30 min at 37° C. Following the stimulation, cells are transferred to a 96-well deep well plates and fixed with 1 ml/well of lyse/fix buffer (1×) (BD Biosciences #558049) with vigorous shake at 37° C. for 10 min. Cells are centrifuged at 600 g for 6 min and washed twice with PBS, followed by addition of 800 ul/well Perm buffer III (BD Biosciences #558050). Cells are then pelleted at 600 g for 6 min, washed with FACS buffer (PBS+0.2% BSA+1 mM EDTA) and stained for 40 min at room temperature in the dark with an antibody cocktail containing PE mouse anti-human CD3 (BD Biosciences #555333, 1 ul/well), FITC mouse anti-human CD4 (BD Biosciences #5555346, 1 ul/well), PerCP-Cy™5.5 mouse anti-human CD8 (BD Biosciences #565310, 1 ul/well) and phospho-CREB (Ser133) (87G3) Rabbit mAb (Alexa Fluor® 647 Conjugate, CST #14001, 0.5 ul/well). Cells are then washed twice with FACS buffer and acquired on a flow cytometer (Sony Cell Sorter SH800). Data were analyzed using FlowJo version 9. The level of CREB phosphorylation from unstimulated cells (Low control: LC) and NECA-stimulated cells (High control: HC) are determined as mean fluorescent intensity (MFI) in stimulated condition/mean fluorescent intensity in unstimulated condition. % Inhibition is calculated as (MFI of HC-MFI of assay well)/(MFI of HC-MFI of LC)×100%. Data are analyzed and IC50s calculated using GraphPad Prism 5 and the model “log(inhibitor) vs. response—Variable slope”.
The A2A receptor is known to mediate CREB phosphorylation.
Venous blood from healthy volunteers, all of whom signed an informed consent approved by the Ethics Committee (FOR—UIC-BV-050-01-01 ICF HBS HD Version 5.0), was obtained via ImmuneHealth (Centre Hospitalier Universitaire Tivoli, La Louviere,
15 Belgium). Peripheral blood cells were treated with A2AR agonists CGS-21680 or NECA (Sigma-Aldrich, Diegem, Belgium), and a serial dilution of compounds disclosed herein (all used stock solutions at 10 mM in DMSO). All dilutions were prepared in RPMI1640 medium (with UltraGlutamine; Lonza, Venders, Belgium), and cells were incubated with compounds in a 37° C. humidified tissue culture incubator with 5% CO2.
After stimulation, cells were fixed and permeabilized, followed by intracellular staining using mouse anti-human pCREB antibodies (Clone J151-21; BD Biosciences) at room temperature. Data were acquired using an LSRFortessa flow cytometer (BD Biosciences) and analyzed using FlowJo software (FlowJo, LLC, Ashland, Oregon).

T1 sequence (P29274 whole entry): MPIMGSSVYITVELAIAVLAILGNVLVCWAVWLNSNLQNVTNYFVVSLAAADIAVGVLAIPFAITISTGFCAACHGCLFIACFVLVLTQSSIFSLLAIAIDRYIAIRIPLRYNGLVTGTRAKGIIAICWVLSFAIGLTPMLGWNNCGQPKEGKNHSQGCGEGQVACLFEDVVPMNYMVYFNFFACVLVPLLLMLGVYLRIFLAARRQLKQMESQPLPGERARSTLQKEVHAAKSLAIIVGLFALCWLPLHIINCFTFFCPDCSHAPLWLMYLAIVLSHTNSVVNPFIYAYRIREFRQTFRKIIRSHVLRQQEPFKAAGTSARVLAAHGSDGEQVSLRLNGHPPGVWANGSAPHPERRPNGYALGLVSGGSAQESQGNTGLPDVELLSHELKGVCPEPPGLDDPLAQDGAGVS

| Compound | IC50 [1] | EC50 [3] | A1/A2A Selectivity [2] |
| --- | --- | --- | --- |
| Cc1cn(CCN2CCN(c3cc(-c4ncco4)ccc3F)CC2)c2nc(N)n3nc(-c4ccccn4)nc3c12 | ≤ 20 nM | 20 to 100 nM | c (greater than 0 but less than or equal to 100) |
| COC(=O)c1c(C)c2c(nc(N)n3nc(-c4ccccn4)nc23)n1CCN1CCN(c2cc(-c3ncco3)ccc2F)CC1 | ≤ 20 nM | > 100 nM | a (greater than 1000) |
| CS(=O)(=O)NC(=O)COc1ccc(N2CCN(CCn3c(C#N)cc4c3nc(N)n3nc(-c5ccccn5)nc43)CC2)cc1 [2-(4-(4-(2-(5-amino-8-cyano-2-(pyridin-2-yl)-7H-pyrrolo[3,2-e][1,2,4]triazolo[1,5-c]pyrimidin-7-yl)ethyl)piperazin-1-yl)phenoxy)-N-(methylsulfonyl)acetamide] | ≤ 20 nM | > 100 nM | b (greater than 100 but less than or equal to 1000) |
| Cc1noc2cc(F)c(N3CCN(CCn4cnc5c4nc(N)n4nc(-c6ccccn6)nc54)CC3)cc12 [3-(2-(4-(6-fluoro-3-methylbenzo[d]isoxazol-5-yl)piperazin-1-yl)ethyl)-8-(pyridin-2-yl)-3H-[1,2,4]triazolo[5,1-i]purin-5-amine] | ≤ 20 nM | > 100 nM | b (greater than 100 but less than or equal to 1000) |
| CNC(=O)c1cc2c(nc(N)n3nc(-c4ccccn4)nc23)n1CCN1CCN(c2cc(-c3ncco3)ccc2F)CC1 [5-amino-7-(2-(4-(2-fluoro-5-(oxazol-2-yl)phenyl)piperazin-1-yl)ethyl)-N-methyl-2-(pyridin-2-yl)-7H-pyrrolo[3,2-e][1,2,4]triazolo[1,5-c]pyrimidine-8-carboxamide] | ≤ 20 nM | > 100 nM | c (greater than 0 but less than or equal to 100) |

Second part, led by results:

| IC50 [1] | EC50 [3] | Compound | A1/A2A Selectivity [2] |
| --- | --- | --- | --- |
| ≤ 20 nM | 20 to 100 nM | CS(=O)(=O)NC(=O)COc1ccc(N2CCN(CCn3c(C#N)c(Cl)c4c3nc(N)n3nc(-c5ccccn5)nc43)CC2)cc1 | b (greater than 100 but less than or equal to 1000) |
| ≤ 20 nM | 20 to 100 nM | CC#Cc1nc2c3ncn(CCN4CCN(c5cc(-c6ncco6)ccc5F)CC4)c3nc(N)n2n1 | a (greater than 1000) |
| ≤ 20 nM | ≤ 20 nM | Cc1c(C(N)=O)n(CCN2CCN(c3cc(-c4ncco4)ccc3F)CC2)c2nc(N)n3nc(-c4ccccn4)nc3c12 | a (greater than 1000) |
| ≤ 20 nM | ≤ 20 nM | CNC(=O)c1c(C)c2c(nc(N)n3nc(-c4ccccn4)nc23)n1CCN1CCN(c2cc(-c3ncco3)ccc2F)CC1 | a (greater than 1000) |
| ≤ 20 nM | 20 to 100 nM | Cc1c(C(=O)N2CCC2)n(CCN2CCN(c3cc(-c4ncco4)ccc3F)CC2)c2nc(N)n3nc(-c4ccccn4)nc3c12 | b (greater than 100 but less than or equal to 1000) |
| ≤ 20 nM | 20 to 100 nM | N#Cc1c(Cl)c2c(nc(N)n3nc(-c4ccccn4)nc23)n1CCN1CCN(c2cc(-c3ncco3)ccc2F)CC1 |  |

Source: US20230024108A1, “ADENOSINE A2A RECEPTOR ANTAGONISTS” (Teon Therapeutics, Inc., priority 2019, published 2023)
